# From ChEMBL document CHEMBL1201862, “PubChem BioAssay data set” (2004)
# The source made the active and inactive calls.
# Legend:
# [1] = inhibitors of intracellular T. cruzi replication, confirmation, NIH3T3 host cells, beta-gal luminescence (AID 2044); type: functional, cell-based;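 further: intracellular parasites grown in NIH/3T3 mouse fibroblasts as host cells; luminescent beta-galactosidase reporter signal from transgenic T. cruzi replicating inside host cells; inhibitors lower the luminescence signal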
# [2] = target: T1, Heat shock factor protein 1 (Mus musculus, UniProt P38532); experiment: HSF1 potentiators in luciferase reporter cells, confirmation, cell-based, NIH3T3, luminescence, dose retest (AID 435004); type: functional;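 further: stress induced by proteasome inhibitor MG132 added 30 min after compound; luciferase reporter driven by HSF1 response element in NIH3T3 cells; actives raise luminescence as potentiators of the MG132 stress response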
# T1 sequence (P38532 whole entry): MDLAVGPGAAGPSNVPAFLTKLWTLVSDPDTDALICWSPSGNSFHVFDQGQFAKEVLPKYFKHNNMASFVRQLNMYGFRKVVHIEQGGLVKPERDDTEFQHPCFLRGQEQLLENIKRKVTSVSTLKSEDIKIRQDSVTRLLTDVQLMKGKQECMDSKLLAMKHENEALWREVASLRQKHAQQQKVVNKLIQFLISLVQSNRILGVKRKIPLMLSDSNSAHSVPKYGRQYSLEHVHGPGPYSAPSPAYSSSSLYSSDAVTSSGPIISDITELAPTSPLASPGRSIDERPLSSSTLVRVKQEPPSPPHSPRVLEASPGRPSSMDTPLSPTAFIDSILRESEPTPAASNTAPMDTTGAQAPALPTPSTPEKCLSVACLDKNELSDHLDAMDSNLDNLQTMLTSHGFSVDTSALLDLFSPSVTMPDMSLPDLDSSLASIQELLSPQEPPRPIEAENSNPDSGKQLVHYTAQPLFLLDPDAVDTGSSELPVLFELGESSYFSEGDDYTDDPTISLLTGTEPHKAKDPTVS
# [3] = cells
# [4] = target: Apelin receptor (Homo sapiens, UniProt P35414); experiment: APJ beta-arrestin recruitment antagonism, SAR follow-up, selectivity assay for CCR6 antagonist project, cell-based, luminescent, enzyme-fragment complementation (AID 588359); type: functional
# Sequence of Apelin receptor (P35414 whole entry, the tested form may be a part): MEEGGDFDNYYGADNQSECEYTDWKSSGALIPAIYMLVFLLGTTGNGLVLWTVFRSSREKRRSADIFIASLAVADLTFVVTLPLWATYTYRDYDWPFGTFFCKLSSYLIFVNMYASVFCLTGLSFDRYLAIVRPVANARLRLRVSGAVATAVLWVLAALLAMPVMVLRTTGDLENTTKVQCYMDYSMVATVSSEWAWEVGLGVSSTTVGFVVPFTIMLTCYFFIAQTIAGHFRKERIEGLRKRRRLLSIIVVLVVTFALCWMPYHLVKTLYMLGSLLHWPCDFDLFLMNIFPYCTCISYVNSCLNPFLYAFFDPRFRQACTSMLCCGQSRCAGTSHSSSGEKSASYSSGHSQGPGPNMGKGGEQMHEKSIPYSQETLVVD
# [5] = target: T2, Replicative DNA helicase DnaB (Mycobacterium tuberculosis, UniProt P9WMR3); experiment: DnaB intein splicing inhibitors, dose response, biochemical, cell-free fluorescence (AID 449749); type: functional
# T2 sequence (P9WMR3 whole entry): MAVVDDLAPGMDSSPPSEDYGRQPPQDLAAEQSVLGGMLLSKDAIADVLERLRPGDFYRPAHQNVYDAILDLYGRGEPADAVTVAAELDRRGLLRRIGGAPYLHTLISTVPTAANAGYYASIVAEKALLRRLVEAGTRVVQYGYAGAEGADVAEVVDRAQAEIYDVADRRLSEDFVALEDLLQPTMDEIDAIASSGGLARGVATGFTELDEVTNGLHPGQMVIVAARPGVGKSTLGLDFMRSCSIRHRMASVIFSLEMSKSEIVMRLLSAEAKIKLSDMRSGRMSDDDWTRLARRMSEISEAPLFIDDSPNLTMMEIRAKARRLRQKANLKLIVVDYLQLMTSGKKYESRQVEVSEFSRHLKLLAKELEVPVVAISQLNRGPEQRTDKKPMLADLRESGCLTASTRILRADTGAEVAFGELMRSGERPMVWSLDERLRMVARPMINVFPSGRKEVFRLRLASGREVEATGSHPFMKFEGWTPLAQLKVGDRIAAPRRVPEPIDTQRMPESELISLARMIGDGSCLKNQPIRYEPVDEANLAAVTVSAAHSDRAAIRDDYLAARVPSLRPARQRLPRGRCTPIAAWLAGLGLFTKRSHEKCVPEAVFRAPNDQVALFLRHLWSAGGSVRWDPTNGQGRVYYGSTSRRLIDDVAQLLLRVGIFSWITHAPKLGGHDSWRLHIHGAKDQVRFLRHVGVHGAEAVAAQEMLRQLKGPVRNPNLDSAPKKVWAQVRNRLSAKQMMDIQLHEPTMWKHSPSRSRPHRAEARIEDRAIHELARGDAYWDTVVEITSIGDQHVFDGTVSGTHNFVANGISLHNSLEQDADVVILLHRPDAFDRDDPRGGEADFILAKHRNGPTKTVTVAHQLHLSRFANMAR
# [6] = target: C-X-C chemokine receptor type 5 (Homo sapiens, UniProt P32302); experiment: CXCR5 receptor antagonists, SAR follow-up, selectivity assay for CCR6 antagonist project, cell-based, beta-arrestin, luminescence, CHO-K1 PathHunter (AID 540340); type: functional
# Sequence of C-X-C chemokine receptor type 5 (P32302 whole entry): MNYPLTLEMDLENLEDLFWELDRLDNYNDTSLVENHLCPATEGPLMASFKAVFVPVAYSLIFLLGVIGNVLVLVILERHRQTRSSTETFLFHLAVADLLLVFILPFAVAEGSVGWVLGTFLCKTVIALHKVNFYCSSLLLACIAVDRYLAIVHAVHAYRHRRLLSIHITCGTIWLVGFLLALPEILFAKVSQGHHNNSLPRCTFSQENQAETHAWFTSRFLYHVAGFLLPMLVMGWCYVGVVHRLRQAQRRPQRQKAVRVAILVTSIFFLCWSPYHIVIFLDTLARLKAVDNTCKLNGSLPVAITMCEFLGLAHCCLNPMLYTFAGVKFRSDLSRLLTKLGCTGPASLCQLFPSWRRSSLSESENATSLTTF
# [7] = target: C-C chemokine receptor type 6 (Homo sapiens, UniProt P51684); experiment: CCR6 receptor antagonists, SAR follow-up, cell-based, luminescent beta-arrestin readout (AID 540334); type: functional
# Sequence of C-C chemokine receptor type 6 (P51684 whole entry): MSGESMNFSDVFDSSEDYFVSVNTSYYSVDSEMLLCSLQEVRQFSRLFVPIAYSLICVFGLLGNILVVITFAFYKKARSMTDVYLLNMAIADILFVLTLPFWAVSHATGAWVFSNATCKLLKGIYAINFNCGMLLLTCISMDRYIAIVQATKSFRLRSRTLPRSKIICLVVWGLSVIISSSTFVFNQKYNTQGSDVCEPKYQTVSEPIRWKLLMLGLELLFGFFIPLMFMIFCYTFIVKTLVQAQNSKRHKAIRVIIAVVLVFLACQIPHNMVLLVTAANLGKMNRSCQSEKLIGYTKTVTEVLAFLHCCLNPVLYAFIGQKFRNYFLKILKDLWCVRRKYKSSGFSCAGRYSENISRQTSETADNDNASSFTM
# [8] = target: T3, Protein RecA (Mycobacterium tuberculosis, UniProt P9WHJ3); experiment: Fluorescence Cell-Free Homogeneous Dose Retest to Identify Inhibitors of RecA-Intein Splicing Activity. [Related pubchem assays (depositor defined):AID2097, AID2223, AID489010, AID492950]; type: functional
# T3 sequence (P9WHJ3 whole entry): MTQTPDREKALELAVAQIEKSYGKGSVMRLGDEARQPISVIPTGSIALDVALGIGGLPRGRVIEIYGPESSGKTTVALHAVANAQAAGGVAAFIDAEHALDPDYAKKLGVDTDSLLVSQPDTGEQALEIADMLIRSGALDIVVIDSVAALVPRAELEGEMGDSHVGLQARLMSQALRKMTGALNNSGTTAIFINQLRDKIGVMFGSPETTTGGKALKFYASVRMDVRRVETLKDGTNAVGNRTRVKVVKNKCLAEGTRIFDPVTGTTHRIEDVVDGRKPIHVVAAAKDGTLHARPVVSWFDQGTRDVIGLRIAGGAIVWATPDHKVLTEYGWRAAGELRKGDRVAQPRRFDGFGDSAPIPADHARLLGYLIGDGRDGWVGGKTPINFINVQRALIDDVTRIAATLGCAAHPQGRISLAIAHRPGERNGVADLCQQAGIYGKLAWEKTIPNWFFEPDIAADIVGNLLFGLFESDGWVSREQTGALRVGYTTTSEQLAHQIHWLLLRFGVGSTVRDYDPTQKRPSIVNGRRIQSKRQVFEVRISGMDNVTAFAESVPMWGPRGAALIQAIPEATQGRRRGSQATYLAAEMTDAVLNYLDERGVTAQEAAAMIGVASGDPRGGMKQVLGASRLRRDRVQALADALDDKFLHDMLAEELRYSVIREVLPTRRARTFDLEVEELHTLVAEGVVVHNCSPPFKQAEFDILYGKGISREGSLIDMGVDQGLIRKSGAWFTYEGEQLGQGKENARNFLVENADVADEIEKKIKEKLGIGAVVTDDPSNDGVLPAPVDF
# [9] = cytotoxicity toward NIH3T3 fibroblasts, dose response, counter-screen, cell-based, ATP luminescence, mouse fibroblasts (AID 2010); type: functional;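 further: cells exposed to compound for about 90 hours before reading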
# [10] = target: Protein disulfide-isomerase (Homo sapiens, UniProt P07237); experiment: PDI inhibitors, insulin aggregation turbidity, dose response, biochemical, absorbance, cherry-picked samples (AID 602350); type: functional
# Sequence of Protein disulfide-isomerase (P07237 whole entry): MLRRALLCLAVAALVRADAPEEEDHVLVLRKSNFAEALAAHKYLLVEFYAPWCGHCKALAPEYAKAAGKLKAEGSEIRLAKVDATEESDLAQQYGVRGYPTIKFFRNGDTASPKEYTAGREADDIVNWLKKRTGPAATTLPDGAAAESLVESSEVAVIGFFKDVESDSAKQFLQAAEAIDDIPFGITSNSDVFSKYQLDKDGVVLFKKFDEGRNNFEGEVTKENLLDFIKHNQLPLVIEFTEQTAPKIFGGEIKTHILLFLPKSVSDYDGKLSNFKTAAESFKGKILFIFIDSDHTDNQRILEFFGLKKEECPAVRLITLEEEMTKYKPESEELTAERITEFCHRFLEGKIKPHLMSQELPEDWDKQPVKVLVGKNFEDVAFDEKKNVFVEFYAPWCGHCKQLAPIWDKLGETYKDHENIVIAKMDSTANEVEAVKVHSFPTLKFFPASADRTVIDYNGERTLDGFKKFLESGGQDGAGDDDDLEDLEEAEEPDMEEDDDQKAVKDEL
SMILES,EC50 [1],EC50 [2],EC50 [3],IC50 [4],AC50 [5],IC50 [6],IC50 [7],EC50 [8],EC50 [9],AC50 [10]
CN1CCc2nc(SCc3ccc(Cl)cc3)c(C#N)c(-c3cccs3)c2C1,< 0.1 µM (active),10.1 µM (active),0.014 µM (active),> 66.6 µM (inactive),> 380 µM (inactive),26.3 µM (inactive),> 66.6 µM (inactive),4.41 µM (active),> 60 µM (not active),
O=S(=O)(c1ccccc1)N1N=C(c2ccc(O)cc2)CC1c1ccco1 (stereo not given),,,,,,,,,,19.5 µM (active)
